Experimental data as given in ChEMBL document CHEMBL1201862, “PubChem BioAssay data set” (2004).
Active and inactive are the calls of the source. Rule as the data show it, for most assays here: actives have a measured EC50 and inactives only a lower limit.

How the values were obtained:
Cytochrome P450 1A2 = biological target: T1, Cytochrome P450 1A2 (Homo sapiens, UniProt P05177);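 also: PubChem cytochrome P450 panel assay, CYP1A2 panel member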
T1 sequence (P05177 whole entry): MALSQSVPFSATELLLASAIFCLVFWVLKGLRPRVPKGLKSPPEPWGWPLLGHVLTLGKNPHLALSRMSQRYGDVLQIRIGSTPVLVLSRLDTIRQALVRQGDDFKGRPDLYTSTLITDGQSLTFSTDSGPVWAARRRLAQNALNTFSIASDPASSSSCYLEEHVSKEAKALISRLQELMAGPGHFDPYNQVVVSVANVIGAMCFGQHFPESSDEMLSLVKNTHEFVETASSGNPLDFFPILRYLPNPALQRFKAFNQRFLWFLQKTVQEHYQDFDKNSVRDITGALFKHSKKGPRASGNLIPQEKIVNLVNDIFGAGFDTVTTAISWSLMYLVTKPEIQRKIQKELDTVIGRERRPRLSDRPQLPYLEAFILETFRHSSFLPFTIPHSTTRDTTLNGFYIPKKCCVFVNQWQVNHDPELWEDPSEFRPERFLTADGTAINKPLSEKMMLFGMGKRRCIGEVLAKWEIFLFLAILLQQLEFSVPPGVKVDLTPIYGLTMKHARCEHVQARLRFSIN

INS1 = assay: beta cell apoptosis inhibitors, cytokine rescue, dose response, luminescence, retest (AID 449756); format: functional, cell-based; conditions: Rattus norvegicus;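 also: cell death triggered by IL-1 beta plus TNF-alpha plus IFN-gamma mixture; protective hits raise ATP signal compared with cytokine alone wells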
[1] = inhibitors of SNCA 5'UTR-driven reporter translation, confirmation, H4 neuroglioma cells, luminescence (AID 1988); format: functional, cell-based
[2] = inhibitors of firefly luciferase expression or activity, dose response, H4 neuroglioma cells, luminescence (AID 1990); format: functional, cell-based
[3] = Luminescence Cell-Based Dose Response HTS to Identify Inhibitors of 5'UTR Stem-Loop Driven Prion Protein mRNA Translation in H4 Neuroglioblastoma Cells. [Related pubchem assays: 1827 (Project Summary), 1813 (Primary HTS)]; format: functional
Cytochrome P450 2D6 = Cytochrome P450 2D6 (Homo sapiens, UniProt P10635);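 also: CYP2D6 member of a cytochrome P450 panel assay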
Chain of Cytochrome P450 2D6 (P10635 whole entry): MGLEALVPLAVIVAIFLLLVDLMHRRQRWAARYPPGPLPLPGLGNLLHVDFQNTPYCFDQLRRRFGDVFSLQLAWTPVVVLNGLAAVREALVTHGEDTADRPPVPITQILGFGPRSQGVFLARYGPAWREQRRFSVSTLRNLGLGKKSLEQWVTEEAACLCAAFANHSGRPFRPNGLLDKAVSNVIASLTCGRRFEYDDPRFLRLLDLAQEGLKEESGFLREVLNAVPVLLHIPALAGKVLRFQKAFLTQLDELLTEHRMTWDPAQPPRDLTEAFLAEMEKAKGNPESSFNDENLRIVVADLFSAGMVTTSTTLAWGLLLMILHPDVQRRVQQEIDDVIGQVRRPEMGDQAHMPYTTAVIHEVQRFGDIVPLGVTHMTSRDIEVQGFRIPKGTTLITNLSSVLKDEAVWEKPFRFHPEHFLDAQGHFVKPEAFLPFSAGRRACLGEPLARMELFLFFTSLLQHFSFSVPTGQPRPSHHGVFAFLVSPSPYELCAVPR

Streptokinase A = biological target: T2, Streptokinase A (Streptococcus pyogenes serotype M1, UniProt P10520); assay: S. pyogenes streptokinase expression inhibitors, potency, dose response, plasminogen activation absorbance, OD405 (AID 1914); format: functional, Streptococcus pyogenes M1 GAS;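 also: secreted streptokinase activity via plasminogen activation per viability signal from cell pellet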
T2 sequence (P10520 whole entry): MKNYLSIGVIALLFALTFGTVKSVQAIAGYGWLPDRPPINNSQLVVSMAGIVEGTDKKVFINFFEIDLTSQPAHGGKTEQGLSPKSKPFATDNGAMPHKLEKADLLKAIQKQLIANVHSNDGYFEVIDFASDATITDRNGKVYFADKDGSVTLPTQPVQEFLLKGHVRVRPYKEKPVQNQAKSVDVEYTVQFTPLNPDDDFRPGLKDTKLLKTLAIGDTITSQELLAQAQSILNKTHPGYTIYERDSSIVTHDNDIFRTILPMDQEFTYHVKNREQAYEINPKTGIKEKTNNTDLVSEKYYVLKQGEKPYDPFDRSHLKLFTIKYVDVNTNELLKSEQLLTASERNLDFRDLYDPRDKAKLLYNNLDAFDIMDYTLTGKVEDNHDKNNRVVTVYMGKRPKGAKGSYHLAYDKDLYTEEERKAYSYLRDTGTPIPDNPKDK

[4] = system: Streptococcus sp. 'group A'; assay: growth inhibition of control SK(-) GAS strain, dose response, counter-screen for streptokinase expression inhibitor project, luminescence, kanamycin, BacTiterGlo, confirmation (AID 1900); format: functional, organism-based
Streptococcus = assay: Group A Streptococcus viability loss, dose response, counter-screen for streptokinase expression inhibitor project, luminescence, BacTiterGlo (AID 1915); format: functional, organism-based;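 also: potency for reduction of bacterial viability or growth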
[5] = biological target: T3, Heat shock factor protein 1 (Mus musculus, UniProt P38532); assay: HSF1 potentiators in luciferase reporter cells, confirmation, cell-based, NIH3T3, luminescence, dose retest (AID 435004); format: functional;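 also: stress induced by proteasome inhibitor MG132 added 30 min after compound; luciferase reporter driven by HSF1 response element in NIH3T3 cells; actives raise luminescence as potentiators of the MG132 stress response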
T3 sequence (P38532 whole entry): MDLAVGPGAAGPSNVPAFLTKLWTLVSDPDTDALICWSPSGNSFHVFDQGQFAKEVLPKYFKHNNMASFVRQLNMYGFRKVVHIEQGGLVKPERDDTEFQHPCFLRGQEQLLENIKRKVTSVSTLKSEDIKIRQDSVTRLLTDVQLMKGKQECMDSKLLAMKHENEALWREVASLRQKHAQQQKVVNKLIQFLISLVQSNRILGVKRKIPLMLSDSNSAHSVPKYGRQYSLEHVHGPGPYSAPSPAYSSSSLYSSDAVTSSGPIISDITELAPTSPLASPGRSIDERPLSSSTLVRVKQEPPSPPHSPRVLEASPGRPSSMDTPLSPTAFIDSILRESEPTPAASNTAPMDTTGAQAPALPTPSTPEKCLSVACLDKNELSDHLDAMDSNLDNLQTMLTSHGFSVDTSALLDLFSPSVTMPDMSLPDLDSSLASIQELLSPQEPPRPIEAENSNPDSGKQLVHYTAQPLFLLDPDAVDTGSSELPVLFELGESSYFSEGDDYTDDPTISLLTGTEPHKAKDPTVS

[6] = inhibitors of intracellular T. cruzi replication, confirmation, NIH3T3 host cells, beta-gal luminescence (AID 2044); format: functional, cell-based;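 also: intracellular parasites grown in NIH/3T3 mouse fibroblasts as host cells; luminescent beta-galactosidase reporter signal from transgenic T. cruzi replicating inside host cells; inhibitors lower the luminescence signal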
[7] = cytotoxicity toward NIH3T3 fibroblasts, dose response, counter-screen, cell-based, ATP luminescence, mouse fibroblasts (AID 2010); format: functional;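 also: cells exposed to compound for about 90 hours before reading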

| Compound | AC50 (Cytochrome P450 1A2) | EC50 [1] | EC50 [2] | EC50 [3] | other results |
| --- | --- | --- | --- | --- | --- |
| Cc1ccc(Oc2nnc(-c3ccccc3)cc2C#N)cc1 | 2.51 µM (inconclusive) |  |  |  |  |
| O=C(Nc1cc(Sc2ccccn2)cc([N+](=O)[O-])c1)c1ccc(Cl)cc1 |  |  |  |  | AC50 (INS1): 5.46 µM (active) |
| O=C(NCCCN1CCN(C2CCCCC2)CC1)Nc1ccccc1C(F)(F)F | 25.1 µM (inconclusive) |  |  |  |  |
| COC(=O)c1cn(-c2ccc(Cl)cc2)c(=O)c2ccccc12 |  | > 120 µM (not active) | 16.2 µM (active) | > 60 µM (not active) |  |
| COc1ccc(CNC(=O)C2CCN(c3nc(OC)nc(OC)n3)CC2)cc1 |  | > 120 µM (not active) | > 120 µM (not active) | > 120 µM (not active) |  |
| COc1ccc(/C(O)=C/C2=NCCc3cc(OC)c(OC)cc32)cc1OC |  | 84.3 µM (active) | > 120 µM (not active) | > 120 µM (not active) |  |
| Cc1nc2ccccc2nc1-c1ccc(/N=[N+](\[O-])c2ccc(-c3nc4ccccc4nc3C)cc2)cc1 | 6.31 µM (inconclusive) |  |  |  |  |
| Clc1cc(I)cc(Cl)c1N=C1NCCN1 [PI-CLONIDINE] | 15.8 µM (inconclusive) |  |  |  |  |
| O=c1c(CCc2ccccc2)nc2cnc(N3CCNCC3)nc2n1-c1ccccc1 | 15.8 µM (inconclusive) |  |  |  |  |
| CCNc1ncc2nc(-c3ccc(F)cc3)c(=O)n(CCC#N)c2n1 | 0.631 µM (inconclusive) |  |  |  | AC50 (Cytochrome P450 2D6): 0.1 µM (inconclusive) |
| CC1CCc2c(sc3nc(C4CC4)nc(N4CCN(C(=O)c5ccco5)CC4)c23)C1 (configuration not stated) |  |  |  |  | EC50 (Streptokinase A): 3.24 µM (active); EC50 [4]: 3.48 µM (active); EC50 (Streptococcus): 9.93 µM (active); AC50 (INS1): 4.18 µM (active) |
| COC(=O)c1cc2ccsc2n1CC(=O)Nc1cc(Cl)ccc1OC |  | 10.9 µM (active) | 18.8 µM (active) | > 120 µM (not active) |  |
| COc1ccc(-c2noc(CSc3nnc(CCc4ccccc4)n3-c3ccccc3)n2)cc1OC |  | > 120 µM (not active) | 14 µM (active) | 14.5 µM (active) |  |
| O=C(NCCCn1ccnc1)c1ccc(-c2ccccc2)cc1 |  |  |  |  | AC50 (INS1): 7.41 µM (active) |
| OC(COCc1ccccc1)Cn1cnc2ccccc21 (configuration not stated) | 15.8 µM (inconclusive) |  |  |  |  |
| Cc1cc(-c2ccccc2)nnc1NCCN1CCOCC1 [MINAPRINE] | 10 µM (inconclusive) |  |  |  | AC50 (Cytochrome P450 2D6): 7.94 µM (inconclusive) |
| Cc1cc(=O)n2nc(N3CCCC(C(=O)N4CCc5ccccc54)C3)sc2n1 (configuration not stated) |  | 34.1 µM (active) | 22.1 µM (active) | > 120 µM (not active) |  |
| Cc1nnc(SCC2=C(C(=O)O)N3C(=O)C(NC(=O)c4cccc(F)c4F)C3SC2)s1 (configuration not stated) |  |  |  |  | EC50 (Streptokinase A): > 150 µM (not active); EC50 [4]: 0.377 µM (active); EC50 (Streptococcus): 1.01 µM (active); EC50 [5]: 246 µM (active) |
| Oc1c(Br)cc(Br)cc1CNc1ccc(F)cc1 |  |  |  |  | EC50 (Streptokinase A): 84.4 µM (active); EC50 [4]: 20.4 µM (active); EC50 (Streptococcus): > 150 µM (not active) |
| c1ccc(-c2nnc(CSc3ccc4c(c3)OCCO4)o2)cc1 |  |  |  |  | AC50 (INS1): > 260 µM (inactive) |
| O=C(CSc1nnc(CNC(=O)c2c(F)cccc2F)o1)NCc1ccccc1 |  |  |  |  | EC50 (Streptokinase A): > 150 µM (not active); EC50 [4]: > 150 µM (not active); EC50 (Streptococcus): > 150 µM (not active) |
| CC(=O)c1c(O)c(C)c(-c2ccccc2)n(-c2ccccc2)c1=O | 6.31 µM (inconclusive) |  |  |  |  |
| CCN(CC)c1ccc(NC(=O)COc2ccc(C#N)cc2)cc1S(=O)(=O)Nc1ccc(OC)cc1 |  | 92.7 µM (active) | 20.6 µM (active) | > 120 µM (not active) |  |
| O=C(Cc1ccccc1)N/N=C/c1ccccn1 |  |  |  |  | EC50 (Streptokinase A): > 150 µM (not active); EC50 [4]: > 150 µM (not active); EC50 (Streptococcus): > 150 µM (not active) |
| Nc1sc(-c2ccccc2)n[n+]1Cc1cccc2cccnc12 |  | > 120 µM (not active) | > 120 µM (not active) | > 120 µM (not active) | EC50 [6]: 2.77 µM (active); EC50 [7]: > 60 µM (not active) |
